Values quoted from earlier work, collected in patent publication US8067462B2, “Processes of making sesquiterpenoid tashironin, its analogs and their uses” (The Trustees of Columbia University in the City of New York, priority 2004, dated 2011).

Test system: neurite growth

Compound	neurotrophic activity (reported on isolation from the wood of illicium tashiroi (Fukuyama et al. 1995))	concentration at which neurite growth is promoted (promotes neurite growth at concentrations as low as (Huang et al. 2001))
tashironin	inactive	–
C[C@@H]1CC[C@@]2(O)C13CC(=O)C1(C)C2(C)CO[C@]1(O)[C@@H]3O [11-O-debenzoyltashironin]	–	≥ 0.1 µmol
